Assay results published in patent publication US20250325687A1, “CONJUGATE COMPRISING TOLL-LIKE RECEPTOR AGONIST” (MABSOFT THERAPEUTICS (SHANGHAI) CO., LTD., priority 2022, published 2025).
Where two headings read alike, the source gives them in different places.

Tests used:
Assay type in all cases: cell-based
[1] = molecular target: T1, hTLR7 (human Toll-like receptor 7) (Homo sapiens, UniProt Q9NYK1); experiment: hTLR7 cell assay (HEK-Blue hTLR7 reporter cells); conditions: 24 hours, OD 650 nm
T1 construct: host or cells: HEK-Blue hTLR7 (HEK293-derived reporter cells)
T1 sequence (Q9NYK1 27-1049): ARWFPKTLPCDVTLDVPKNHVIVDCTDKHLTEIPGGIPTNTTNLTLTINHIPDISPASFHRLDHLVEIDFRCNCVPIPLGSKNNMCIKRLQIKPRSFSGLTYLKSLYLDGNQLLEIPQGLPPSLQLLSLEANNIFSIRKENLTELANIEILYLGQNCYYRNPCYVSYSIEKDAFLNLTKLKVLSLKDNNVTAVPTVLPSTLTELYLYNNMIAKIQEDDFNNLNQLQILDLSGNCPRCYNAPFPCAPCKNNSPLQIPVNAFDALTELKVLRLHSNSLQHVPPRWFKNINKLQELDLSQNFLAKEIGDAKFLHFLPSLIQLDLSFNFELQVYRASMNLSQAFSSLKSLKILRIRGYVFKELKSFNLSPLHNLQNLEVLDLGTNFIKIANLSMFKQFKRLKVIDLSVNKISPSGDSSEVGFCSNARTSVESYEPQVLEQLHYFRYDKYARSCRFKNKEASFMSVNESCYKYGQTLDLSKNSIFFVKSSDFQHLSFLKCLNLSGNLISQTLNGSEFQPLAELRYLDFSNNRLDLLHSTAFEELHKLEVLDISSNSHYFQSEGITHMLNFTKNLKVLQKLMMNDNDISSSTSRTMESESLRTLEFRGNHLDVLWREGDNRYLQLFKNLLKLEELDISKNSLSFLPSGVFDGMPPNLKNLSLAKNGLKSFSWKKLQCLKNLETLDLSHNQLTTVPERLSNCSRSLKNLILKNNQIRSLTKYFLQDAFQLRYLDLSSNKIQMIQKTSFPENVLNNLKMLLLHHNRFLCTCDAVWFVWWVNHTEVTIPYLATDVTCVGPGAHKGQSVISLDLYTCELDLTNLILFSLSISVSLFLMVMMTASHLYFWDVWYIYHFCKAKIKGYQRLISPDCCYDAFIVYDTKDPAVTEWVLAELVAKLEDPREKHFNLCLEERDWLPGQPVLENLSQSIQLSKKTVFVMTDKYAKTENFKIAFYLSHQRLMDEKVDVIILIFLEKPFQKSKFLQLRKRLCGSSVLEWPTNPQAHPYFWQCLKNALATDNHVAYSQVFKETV
Method in brief: (§1)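 HEK-Blue reporter cells in HEK-Blue Detection medium (50000 cells/mL) were exposed to test compounds for 24 hours at 37° C, 5% CO2. Agonism was read from supernatant incubated 1 hour at 37° C with QUANTI-Blue, measured as optical density at 650 nm.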

[2] = molecular target: T2, hTLR8 (human Toll-like receptor 8) (Homo sapiens, UniProt Q9NR97); experiment: hTLR8 cell assay (HEK-Blue hTLR8 reporter cells); conditions: 24 hours, OD 650 nm
T2 construct: host or cells: HEK-Blue hTLR8 (HEK293-derived reporter cells)
T2 sequence (Q9NR97 27-1041): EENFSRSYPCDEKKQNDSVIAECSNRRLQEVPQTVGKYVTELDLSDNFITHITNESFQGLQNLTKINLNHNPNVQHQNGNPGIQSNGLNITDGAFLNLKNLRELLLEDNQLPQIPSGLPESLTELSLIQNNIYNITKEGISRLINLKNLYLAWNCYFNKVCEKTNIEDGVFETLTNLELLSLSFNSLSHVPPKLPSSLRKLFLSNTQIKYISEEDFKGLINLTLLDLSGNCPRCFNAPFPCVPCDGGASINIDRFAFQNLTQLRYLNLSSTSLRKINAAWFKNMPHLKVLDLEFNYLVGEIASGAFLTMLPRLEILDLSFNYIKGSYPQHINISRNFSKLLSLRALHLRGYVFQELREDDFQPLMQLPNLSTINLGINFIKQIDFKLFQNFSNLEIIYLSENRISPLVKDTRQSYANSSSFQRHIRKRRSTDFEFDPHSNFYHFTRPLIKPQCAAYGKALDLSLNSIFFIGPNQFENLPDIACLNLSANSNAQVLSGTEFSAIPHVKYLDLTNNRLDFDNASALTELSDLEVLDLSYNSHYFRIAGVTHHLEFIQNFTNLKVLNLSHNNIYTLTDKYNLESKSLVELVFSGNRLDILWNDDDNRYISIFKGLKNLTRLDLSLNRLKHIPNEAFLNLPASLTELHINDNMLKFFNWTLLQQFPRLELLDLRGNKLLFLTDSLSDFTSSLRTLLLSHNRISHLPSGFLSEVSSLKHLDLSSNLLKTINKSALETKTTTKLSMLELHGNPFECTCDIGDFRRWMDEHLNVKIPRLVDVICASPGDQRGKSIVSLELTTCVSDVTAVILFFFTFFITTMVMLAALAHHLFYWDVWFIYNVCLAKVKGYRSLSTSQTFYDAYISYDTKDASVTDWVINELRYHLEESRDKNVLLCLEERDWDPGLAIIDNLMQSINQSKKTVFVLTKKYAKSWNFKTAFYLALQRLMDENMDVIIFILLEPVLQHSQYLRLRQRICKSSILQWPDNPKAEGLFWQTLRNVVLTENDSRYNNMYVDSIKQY
Method in brief: as §1

[3] = test system: human PBMC (human peripheral blood mononuclear cells); experiment: PBMC screening assay: induction of TNF-α production; conditions: read-out: EC50 (μM) TNF-α (hPBMC)
Description: The payload compounds of Formula (II′) were assayed to evaluate the induction of TNF-α production in human PBMC (human peripheral blood mononuclear cells).
Human peripheral blood mononuclear cells (PBMC) were obtained from Allcells. […] PBMC were incubated for 24 hours at 37° C. in a 5% CO2 humidified incubator. The following day PBMC plates were centrifuged at 500×g for 5 minutes and the growth media was removed. 200 μL of compound prepared in growth media at a series of diluted concentrations ranging from 2.54 nM to 50 μM were added to PBMC in duplicate and incubated for 24 hours at 37° C. in a 5% CO2 incubator. Prior to supernatant harvest, cells were spun at 500×g for 5 minutes to remove cell debris. TNF-α activity was assessed in the supernatant by ELISA (Elabscience) per the manufacturer's instructions. Optical density at 450 nm (ELISA) was analyzed using a plate reader.

[4] = human PBMC, 24 hours, TNF-α by ELISA, class symbols

SMILES	EC50 [1]	EC50 [2]	EC50 [3, 4]	EC50 ([3]; Homo sapiens, PBMC, 24 h)
CCCC(F)(F)c1nc2c(N)nc3cc(Cc4cccc(CN)c4)ccc3c2n1CC(C)(C)O [Compound 52, 1-(4-amino-7-(3-(aminomethyl)benzyl)-2-(1,1-difluorobutyl)-1H-imidazo[4,5-c]quinolin-1-yl)-2-methylpropan-2-ol]	1 to 10 µM	< 5 µM	> 0.64 µM	
CC(C)(O)Cn1c(COCC(F)(F)F)nc2c(N)nc3cc(Cc4cccc(CN)c4)ccc3c21 [Compound 53, 1-(4-amino-7-(3-(aminomethyl)benzyl)-2-((2,2,2-trifluoroethoxy)methyl)-1H-imidazo[4,5-c]quinolin-1-yl)-2-methylpropan-2-ol]	< 1 µM	< 5 µM	< 0.64 µM	
CC(C)(O)Cn1c(CC2CC2)nc2c(N)nc3cc(Cc4cccc(CN)c4)ccc3c21 [Compound 54, 1-(4-amino-7-(3-(aminomethyl)benzyl)-2-(cyclopropylmethyl)-1H-imidazo[4,5-c]quinolin-1-yl)-2-methylpropan-2-ol]	< 1 µM	< 5 µM	> 0.64 µM	
CC(C)(O)Cn1c(COC2CC2)nc2c(N)nc3cc(Cc4cccc(CN)c4)ccc3c21 [Compound 55, 1-(4-amino-7-(3-(aminomethyl)benzyl)-2-(cyclopropoxymethyl)-1H-imidazo[4,5-c]quinolin-1-yl)-2-methylpropan-2-ol]	< 1 µM	< 5 µM	< 0.64 µM	
CCCCc1nc2c(N)nc3cc(C(C)c4cccc(CN)c4)ccc3c2n1CC(C)(C)O (stereo not drawn) [Compound 56, 1-(4-amino-7-(1-(3-(aminomethyl)phenyl)ethyl)-2-butyl-1H-imidazo[4,5-c]quinolin-1-yl)-2-methylpropan-2-ol]	< 1 µM	< 5 µM	< 0.64 µM	
CCCCc1nc2c(N)nc3cc(Cc4ccc5c(c4)C(N)CCC5)ccc3c2n1CC(C)(C)O (stereo not drawn) [Compound 57, 1-(4-amino-7-((8-amino-5,6,7,8-tetrahydronaphthalen-2-yl)methyl)-2-butyl-1H-imidazo[4,5-c]quinolin-1-yl)-2-methylpropan-2-ol]	< 1 µM	< 5 µM		< 0.64 µM
CCCCc1nc2c(N)nc3cc(Cc4ccc5c(c4)CC(N)CC5)ccc3c2n1CC(C)(C)O (stereo not drawn) [Compound 58, 1-(4-amino-7-((7-amino-5,6,7,8-tetrahydronaphthalen-2-yl)methyl)-2-butyl-1H-imidazo[4,5-c]quinolin-1-yl)-2-methylpropan-2-ol]	< 1 µM	< 5 µM	< 0.64 µM	
CCCCc1nc2c(N)nc3cc(Cc4ccc5c(c4)CCNC5)ccc3c2n1CC(C)(C)O [Compound 59, 1-(4-amino-2-butyl-7-((1,2,3,4-tetrahydroisoquinolin-6-yl)methyl)-1H-imidazo[4,5-c]quinolin-1-yl)-2-methylpropan-2-ol]	< 1 µM	< 5 µM	< 0.64 µM	
CCCCc1nc2c(N)nc3cc(Cc4ccc5c(c4)CNCC5)ccc3c2n1CC(C)(C)O [Compound 60, 1-(4-amino-2-butyl-7-((1,2,3,4-tetrahydroisoquinolin-7-yl)methyl)-1H-imidazo[4,5-c]quinolin-1-yl)-2-methylpropan-2-ol]	< 1 µM	< 5 µM	< 0.64 µM	
CCCCc1nc2c(N)nc3cc(Cc4ccc5c(c4)C(N)CC5)ccc3c2n1CC(C)(C)O (stereo not drawn) [Compound 61, 1-(4-amino-7-((3-amino-2,3-dihydro-1H-inden-5-yl)methyl)-2-butyl-1H-imidazo[4,5-c]quinolin-1-yl)-2-methylpropan-2-ol]	< 1 µM	< 5 µM	< 0.64 µM	
CCCCc1nc2c(N)nc3cc(Cc4cccc(OCCN)c4)ccc3c2n1CC(C)(C)O [Compound 62, 1-(4-amino-7-(3-(2-aminoethoxy)benzyl)-2-butyl-1H-imidazo[4,5-c]quinolin-1-yl)-2-methylpropan-2-ol]	< 1 µM	< 5 µM	< 0.64 µM	
CCCCc1nc2c(N)nc3cc(Cc4cccc(N5CCNCC5)c4)ccc3c2n1CC(C)(C)O [Compound 63, 1-(4-amino-2-butyl-7-(3-(piperazin-1-yl)benzyl)-1H-imidazo[4,5-c]quinolin-1-yl)-2-methylpropan-2-ol]	< 1 µM	< 5 µM	< 0.64 µM	
CCCCc1nc2c(N)nc3cc(Cc4cccc(C(=O)NCCN)c4)ccc3c2n1CC(C)(C)O [Compound 64, 3-((4-amino-2-butyl-1-(2-hydroxy-2-methylpropyl)-1H-imidazo[4,5-c]quinolin-7-yl)methyl)-N-(2-aminoethyl)benzamide]	1 to 10 µM	< 5 µM	< 0.64 µM	
CCCCc1nc2c(N)nc3cc(Cc4cccc(NC(=O)CN)c4)ccc3c2n1CC(C)(C)O [Compound 65, 2-amino-N-(3-((4-amino-2-butyl-1-(2-hydroxy-2-methylpropyl)-1H-imidazo[4,5-c]quinolin-7-yl)methyl)phenyl)acetamide]	1 to 10 µM	< 5 µM	< 0.64 µM	
CCCCc1nc2c(N)nc3cc(Cc4cccc(CNC(=O)CN)c4)ccc3c2n1CC(C)(C)O [Compound 66, 2-amino-N-(3-((4-amino-2-butyl-1-(2-hydroxy-2-methylpropyl)-1H-imidazo[4,5-c]quinolin-7-yl)methyl)benzyl)acetamide]	1 to 10 µM	< 5 µM	> 0.64 µM	
CCCCc1nc2c(N)nc3cc(Cc4cc(CN)ccc4F)ccc3c2n1CC(C)(C)O [Compound 67, 1-(4-amino-7-(5-(aminomethyl)-2-fluorobenzyl)-2-butyl-1H-imidazo[4,5-c]quinolin-1-yl)-2-methylpropan-2-ol]	< 1 µM	< 5 µM	< 0.64 µM	
CCCCc1nc2c(N)nc3cc(Cc4ccc(F)c(CN)c4)ccc3c2n1CC(C)(C)O [Compound 68, 1-(4-amino-7-(3-(aminomethyl)-4-fluorobenzyl)-2-butyl-1H-imidazo[4,5-c]quinolin-1-yl)-2-methylpropan-2-ol]	< 1 µM	< 5 µM	< 0.64 µM	
